# In ChEMBL document CHEMBL3611987, “Design and synthesis of conformationally constrained hydroxylated 4-phenyl-2-aryl chromenopyridines as novel and selective topoisomerase II-targeted antiproliferative agents” (Bioorg Med Chem, 2015):
# pIC50: −log10 of the molar value.
# Biological target: DNA topoisomerase 2-alpha (Homo sapiens) (UniProt P11388)
# Assay: Inhibition of human DNA topoisomerase 2alpha assessed as relaxation of supercoiled pBR322 DNA at 100 uM after 30 mins using ethidium bromide staining by agarose gel electrophoresis
# Settings: not given
# DNA topoisomerase 2-alpha (Homo sapiens), sequence (P11388 whole entry): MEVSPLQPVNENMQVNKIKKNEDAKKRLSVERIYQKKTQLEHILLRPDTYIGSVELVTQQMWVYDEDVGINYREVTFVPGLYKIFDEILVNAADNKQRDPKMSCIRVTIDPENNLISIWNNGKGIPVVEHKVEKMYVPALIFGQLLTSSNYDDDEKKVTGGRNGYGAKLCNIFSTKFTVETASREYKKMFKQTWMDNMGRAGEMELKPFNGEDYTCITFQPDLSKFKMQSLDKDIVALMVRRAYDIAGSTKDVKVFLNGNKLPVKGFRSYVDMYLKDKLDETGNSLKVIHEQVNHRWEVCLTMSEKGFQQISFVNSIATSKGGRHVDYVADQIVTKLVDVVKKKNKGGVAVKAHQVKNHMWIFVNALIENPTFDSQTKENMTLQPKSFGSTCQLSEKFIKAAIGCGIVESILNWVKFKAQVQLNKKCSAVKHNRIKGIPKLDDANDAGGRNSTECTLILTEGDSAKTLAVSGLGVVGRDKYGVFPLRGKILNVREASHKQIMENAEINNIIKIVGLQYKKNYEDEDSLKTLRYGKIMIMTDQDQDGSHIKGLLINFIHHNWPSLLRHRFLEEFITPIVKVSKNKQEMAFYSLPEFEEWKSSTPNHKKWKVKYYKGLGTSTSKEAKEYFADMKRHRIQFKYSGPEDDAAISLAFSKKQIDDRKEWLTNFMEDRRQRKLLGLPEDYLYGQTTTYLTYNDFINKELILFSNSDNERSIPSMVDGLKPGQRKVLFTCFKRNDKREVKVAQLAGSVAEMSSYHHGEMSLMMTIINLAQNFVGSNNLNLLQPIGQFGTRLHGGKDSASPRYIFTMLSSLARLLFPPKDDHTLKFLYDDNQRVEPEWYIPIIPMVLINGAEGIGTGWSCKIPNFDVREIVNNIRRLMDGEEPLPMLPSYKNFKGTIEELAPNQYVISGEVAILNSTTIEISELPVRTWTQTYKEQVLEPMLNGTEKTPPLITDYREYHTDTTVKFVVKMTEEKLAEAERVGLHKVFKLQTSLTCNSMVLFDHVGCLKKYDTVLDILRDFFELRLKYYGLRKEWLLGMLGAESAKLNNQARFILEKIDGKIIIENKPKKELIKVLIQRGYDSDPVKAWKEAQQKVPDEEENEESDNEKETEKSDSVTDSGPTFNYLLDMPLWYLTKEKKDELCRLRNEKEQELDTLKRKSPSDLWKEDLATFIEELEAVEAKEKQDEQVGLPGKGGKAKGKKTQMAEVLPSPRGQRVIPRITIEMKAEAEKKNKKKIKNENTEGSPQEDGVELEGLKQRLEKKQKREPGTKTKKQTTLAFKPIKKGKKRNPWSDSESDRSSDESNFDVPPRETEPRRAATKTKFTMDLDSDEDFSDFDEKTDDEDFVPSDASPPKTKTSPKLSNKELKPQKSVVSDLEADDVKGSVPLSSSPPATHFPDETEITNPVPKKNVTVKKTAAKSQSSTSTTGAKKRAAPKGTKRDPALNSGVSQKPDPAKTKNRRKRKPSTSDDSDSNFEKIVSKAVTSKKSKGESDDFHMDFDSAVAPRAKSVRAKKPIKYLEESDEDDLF
row,inhibition [%],SMILES
1,84.7,Oc1ccccc1-c1cc(-c2ccccc2)nc2c1COc1ccccc1-2
2,88.6,Oc1cccc(-c2cc(-c3ccccc3O)nc3c2COc2ccccc2-3)c1
3,89.3,Oc1ccc(-c2cc(-c3ccccc3O)nc3c2COc2ccccc2-3)cc1
4,100,Oc1ccc(-c2cc(-c3ccsc3)nc3c2COc2ccccc2-3)cc1
5,94.8,Oc1cccc(-c2cc(-c3ccccc3)nc3c2COc2ccccc2-3)c1

# Continued, compound first:
row,SMILES,inhibition [%]
1,Oc1ccccc1-c1cc(-c2ccccc2O)c2c(n1)-c1ccccc1OC2,78
2,Oc1ccccc1-c1cc(-c2cccs2)nc2c1COc1ccccc1-2,95.7
3,Oc1cccc(-c2cc(-c3ccsc3)nc3c2COc2ccccc2-3)c1,100
4,Oc1cccc(-c2cc(-c3ccccc3O)c3c(n2)-c2ccccc2OC3)c1,92.1

# Biological target: DNA topoisomerase 2-alpha (Homo sapiens) (UniProt P11388)
# Assay: Inhibition of human DNA topoisomerase 2alpha assessed as relaxation of supercoiled pBR322 DNA at 20 uM after 30 mins using ethidium bromide staining by agarose gel electrophoresis
# Settings: not given
row,inhibition [%],SMILES
1,10,Oc1ccccc1-c1cc(-c2ccccc2)nc2c1COc1ccccc1-2
2,33.7,Oc1cccc(-c2cc(-c3ccccc3O)nc3c2COc2ccccc2-3)c1
3,63.2,Oc1ccc(-c2cc(-c3ccccc3O)nc3c2COc2ccccc2-3)cc1
4,18.1,Oc1ccc(-c2cc(-c3ccsc3)nc3c2COc2ccccc2-3)cc1
5,10.9,Oc1cccc(-c2cc(-c3ccccc3)nc3c2COc2ccccc2-3)c1

# The remaining lines, values behind:
row,SMILES,inhibition [%]
1,Oc1ccccc1-c1cc(-c2ccccc2O)c2c(n1)-c1ccccc1OC2,47.9
2,Oc1ccccc1-c1cc(-c2cccs2)nc2c1COc1ccccc1-2,4.8
3,Oc1cccc(-c2cc(-c3ccsc3)nc3c2COc2ccccc2-3)c1,31.7
4,Oc1cccc(-c2cc(-c3ccccc3O)c3c(n2)-c2ccccc2OC3)c1,4.8

# Biological target: T1, DNA topoisomerase 1 (Homo sapiens) (UniProt P11387)
# T1 sequence (whole entry): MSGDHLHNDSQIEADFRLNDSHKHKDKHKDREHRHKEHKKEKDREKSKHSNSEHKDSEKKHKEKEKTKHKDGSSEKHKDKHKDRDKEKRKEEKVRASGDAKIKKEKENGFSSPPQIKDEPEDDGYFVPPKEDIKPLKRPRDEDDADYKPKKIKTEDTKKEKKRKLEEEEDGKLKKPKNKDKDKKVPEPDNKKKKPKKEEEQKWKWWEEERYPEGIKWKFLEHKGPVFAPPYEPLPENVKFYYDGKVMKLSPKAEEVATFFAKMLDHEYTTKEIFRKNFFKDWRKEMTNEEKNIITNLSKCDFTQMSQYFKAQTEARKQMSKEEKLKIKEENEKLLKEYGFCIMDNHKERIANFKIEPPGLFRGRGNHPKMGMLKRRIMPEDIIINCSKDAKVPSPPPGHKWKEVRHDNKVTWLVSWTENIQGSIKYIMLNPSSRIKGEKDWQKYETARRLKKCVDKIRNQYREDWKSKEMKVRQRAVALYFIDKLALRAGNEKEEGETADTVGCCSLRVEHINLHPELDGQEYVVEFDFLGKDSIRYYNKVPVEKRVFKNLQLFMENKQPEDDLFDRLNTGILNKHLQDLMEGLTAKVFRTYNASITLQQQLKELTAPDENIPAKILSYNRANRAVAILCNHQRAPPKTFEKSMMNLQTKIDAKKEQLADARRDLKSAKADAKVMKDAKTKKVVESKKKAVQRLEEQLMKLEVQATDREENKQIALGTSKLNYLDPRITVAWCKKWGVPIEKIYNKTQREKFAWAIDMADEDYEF
# Assay: Inhibition of human recombinant DNA topoisomerase 1 assessed as relaxation of supercoiled pBR322 DNA at 100 uM after 30 mins using ethidium bromide staining by agarose gel electrophoresis
# Settings: not given
row,inhibition [%],SMILES
1,3.6,Oc1ccccc1-c1cc(-c2ccccc2)nc2c1COc1ccccc1-2
2,0,c1ccc(-c2cc(-c3ccccc3)c3c(n2)-c2ccccc2OC3)cc1
3,2.4,Oc1cccc(-c2cc(-c3ccccc3O)nc3c2COc2ccccc2-3)c1
4,3.8,Oc1ccc(-c2cc(-c3ccccc3O)nc3c2COc2ccccc2-3)cc1
5,0,Oc1ccc(-c2cc(-c3ccsc3)nc3c2COc2ccccc2-3)cc1
6,1.5,Oc1cccc(-c2cc(-c3ccccc3)nc3c2COc2ccccc2-3)c1

# More lines, now with the values behind:
row,SMILES,inhibition [%]
1,Oc1ccccc1-c1cc(-c2ccccc2O)c2c(n1)-c1ccccc1OC2,2.4
2,Oc1ccccc1-c1cc(-c2cccs2)nc2c1COc1ccccc1-2,3.5
3,Oc1cccc(-c2cc(-c3ccsc3)nc3c2COc2ccccc2-3)c1,68.6
4,Oc1cccc(-c2cc(-c3ccccc3O)c3c(n2)-c2ccccc2OC3)c1,3.3

# Biological target: T1, DNA topoisomerase 1 (Homo sapiens)
# Assay: Inhibition of human recombinant DNA topoisomerase 1 assessed as relaxation of supercoiled pBR322 DNA at 20 uM after 30 mins using ethidium bromide staining by agarose gel electrophoresis
# Settings: not given
row,inhibition [%],SMILES
1,0,Oc1cccc(-c2cc(-c3ccsc3)nc3c2COc2ccccc2-3)c1

# Tested on: DU-145
# Assay: Cytotoxicity against human DU145 cells after 2 days by CCK8 assay
# Type: functional, cell-based
# Settings: DU-145, 48 h
row,SMILES,pIC50
1,Oc1ccccc1-c1cc(-c2ccccc2O)c2c(n1)-c1ccccc1OC2,5.33
2,Oc1ccccc1-c1cc(-c2ccccc2)nc2c1COc1ccccc1-2,5.30
3,Oc1ccccc1-c1cc(-c2cccs2)nc2c1COc1ccccc1-2,5.22
4,Oc1cccc(-c2cc(-c3ccccc3O)nc3c2COc2ccccc2-3)c1,5.20
5,Oc1ccc(-c2cc(-c3ccccc3O)nc3c2COc2ccccc2-3)cc1,< 4.30
6,Oc1ccc(-c2cc(-c3ccsc3)nc3c2COc2ccccc2-3)cc1,6.41
7,Oc1cccc(-c2cc(-c3ccsc3)nc3c2COc2ccccc2-3)c1,5.52
8,COc1cc([C@@H]2c3cc4c(cc3[C@@H](O[C@@H]3O[C@@H]5CO[C@@H](C)O[C@H]5[C@H](O)[C@H]3O)[C@H]3COC(=O)[C@H]23)OCO4)cc(OC)c1O [ETOPOSIDE],4.88
9,Oc1cccc(-c2cc(-c3ccccc3)nc3c2COc2ccccc2-3)c1,5.63
10,Oc1cccc(-c2cc(-c3ccccc3O)c3c(n2)-c2ccccc2OC3)c1,6.20
11,COc1cccc2c1C(=O)c1c(O)c3c(c(O)c1C2=O)C[C@@](O)(C(=O)CO)C[C@@H]3O[C@H]1C[C@H](N)[C@H](O)[C@H](C)O1 [DOXORUBICIN],6.02

# Tested on: HCT-15
# Assay: Cytotoxicity against human HCT15 cells after 2 days by CCK8 assay
# Type: functional, cell-based
# Settings: HCT-15, 48 h
row,SMILES,pIC50
1,Oc1ccccc1-c1cc(-c2ccccc2O)c2c(n1)-c1ccccc1OC2,5.45
2,Oc1ccccc1-c1cc(-c2ccccc2)nc2c1COc1ccccc1-2,5.46
3,Oc1ccccc1-c1cc(-c2cccs2)nc2c1COc1ccccc1-2,5.71
4,CC[C@@]1(O)C(=O)OCc2c1cc1n(c2=O)Cc2cc3ccccc3nc2-1 [CAMPTOTHECIN],6.52
5,Oc1cccc(-c2cc(-c3ccccc3O)nc3c2COc2ccccc2-3)c1,5.68
6,Oc1ccc(-c2cc(-c3ccccc3O)nc3c2COc2ccccc2-3)cc1,5.81
7,Oc1ccc(-c2cc(-c3ccsc3)nc3c2COc2ccccc2-3)cc1,5.78
8,Oc1cccc(-c2cc(-c3ccsc3)nc3c2COc2ccccc2-3)c1,5.91
9,COc1cc([C@@H]2c3cc4c(cc3[C@@H](O[C@@H]3O[C@@H]5CO[C@@H](C)O[C@H]5[C@H](O)[C@H]3O)[C@H]3COC(=O)[C@H]23)OCO4)cc(OC)c1O [ETOPOSIDE],5.59
10,Oc1cccc(-c2cc(-c3ccccc3)nc3c2COc2ccccc2-3)c1,5.52
11,Oc1cccc(-c2cc(-c3ccccc3O)c3c(n2)-c2ccccc2OC3)c1,6.00

# Tested on: T47D
# Assay: Cytotoxicity against human T47D cells after 2 days by CCK8 assay
# Type: functional, cell-based
# Settings: 48 h
row,SMILES,pIC50
1,Oc1ccccc1-c1cc(-c2ccccc2O)c2c(n1)-c1ccccc1OC2,5.56
2,Oc1ccccc1-c1cc(-c2ccccc2)nc2c1COc1ccccc1-2,5.42
3,c1ccc(-c2cc(-c3ccccc3)c3c(n2)-c2ccccc2OC3)cc1,4.85
4,Oc1ccccc1-c1cc(-c2cccs2)nc2c1COc1ccccc1-2,5.57
5,CC[C@@]1(O)C(=O)OCc2c1cc1n(c2=O)Cc2cc3ccccc3nc2-1 [CAMPTOTHECIN],7.10
6,Oc1cccc(-c2cc(-c3ccccc3O)nc3c2COc2ccccc2-3)c1,5.47
7,Oc1ccc(-c2cc(-c3ccccc3O)nc3c2COc2ccccc2-3)cc1,5.89
8,Oc1ccc(-c2cc(-c3ccsc3)nc3c2COc2ccccc2-3)cc1,5.72
9,Oc1cccc(-c2cc(-c3ccsc3)nc3c2COc2ccccc2-3)c1,5.93
10,COc1cc([C@@H]2c3cc4c(cc3[C@@H](O[C@@H]3O[C@@H]5CO[C@@H](C)O[C@H]5[C@H](O)[C@H]3O)[C@H]3COC(=O)[C@H]23)OCO4)cc(OC)c1O [ETOPOSIDE],6.03
11,Oc1cccc(-c2cc(-c3ccccc3)nc3c2COc2ccccc2-3)c1,6.12
12,Oc1cccc(-c2cc(-c3ccccc3O)c3c(n2)-c2ccccc2OC3)c1,5.66
13,COc1cccc2c1C(=O)c1c(O)c3c(c(O)c1C2=O)C[C@@](O)(C(=O)CO)C[C@@H]3O[C@H]1C[C@H](N)[C@H](O)[C@H](C)O1 [DOXORUBICIN],5.73

# Tested on: not listed separately
# Assay: Cytotoxicity against human MCF10A cells after 2 days by CCK8 assay
# Type: cell-based
# Settings: MCF-10A, 48 h
row,SMILES,pIC50
1,Oc1ccccc1-c1cc(-c2ccccc2O)c2c(n1)-c1ccccc1OC2,5.06
2,Oc1ccccc1-c1cc(-c2ccccc2)nc2c1COc1ccccc1-2,5.09
3,c1ccc(-c2cc(-c3ccccc3)c3c(n2)-c2ccccc2OC3)cc1,5.18
4,Oc1ccccc1-c1cc(-c2cccs2)nc2c1COc1ccccc1-2,5.25
5,CC[C@@]1(O)C(=O)OCc2c1cc1n(c2=O)Cc2cc3ccccc3nc2-1 [CAMPTOTHECIN],6.01
6,Oc1cccc(-c2cc(-c3ccccc3O)nc3c2COc2ccccc2-3)c1,5.34
7,Oc1ccc(-c2cc(-c3ccccc3O)nc3c2COc2ccccc2-3)cc1,4.62
8,Oc1ccc(-c2cc(-c3ccsc3)nc3c2COc2ccccc2-3)cc1,5.23
9,Oc1cccc(-c2cc(-c3ccsc3)nc3c2COc2ccccc2-3)c1,5.14
10,COc1cc([C@@H]2c3cc4c(cc3[C@@H](O[C@@H]3O[C@@H]5CO[C@@H](C)O[C@H]5[C@H](O)[C@H]3O)[C@H]3COC(=O)[C@H]23)OCO4)cc(OC)c1O [ETOPOSIDE],4.99
11,Oc1cccc(-c2cc(-c3ccccc3)nc3c2COc2ccccc2-3)c1,5.07
12,Oc1cccc(-c2cc(-c3ccccc3O)c3c(n2)-c2ccccc2OC3)c1,5.47
13,COc1cccc2c1C(=O)c1c(O)c3c(c(O)c1C2=O)C[C@@](O)(C(=O)CO)C[C@@H]3O[C@H]1C[C@H](N)[C@H](O)[C@H](C)O1 [DOXORUBICIN],5.91
